Patent US12479818B2, “Treatment of fibrosis with IRE1 small molecule inhibitors” (Cornell University, priority 2019, dated 2025)
pEC50, pIC50: −log10 of the molar value.

Columns and labels:
IRE1a [1] = biological target: T1, IRE1a (Homo sapiens, UniProt O75460); assay: In vitro FRET assay (IRE1a cleavage of XBP1 RNA probe); type: biochemical; set-up: purchased SignalChem; conditions: IRE1a 2 nM, tested as the salt named
Experimental: Selected compounds were serially diluted with DMSO in a non-binding black 384-well plate for a total of 15 ul in each well. 2 ul of the serially diluted compound or DMSO control were then added to new wells containing 98 ul of 1×CAB, for a total volume of 100 ul, 10 ul of which were then transferred to wells of a new plate. 5 ul of the diluted IRE1a was then added to each well. 5 ul of a […] XBP1 RNA probe was then added to each well.
Each probe contained a 5′ 6-FAM modification and a 3′ IOWA Black FQ modification.
A second FRET assay was performed to assess ATP-mediated inhibition. In this case, compounds and IRE1a were prepared and combined as discussed above, with the addition of ATP up to 1 mM final concentration. This mixture was incubated at room temperature for 60 minutes and then 5 ul of 400 nM XBP1 wildtype or mutant RNA probe was added.

IRE1a [2] = biological target: T1, IRE1a; assay: IRE1a Endoribonuclease Nanoluciferase Assay (XBP1 luciferase reporter in 293T cells); type: cell-based; set-up: endogenous in cells; host or cells: 293T; conditions: XBP1 nanoluciferase reporter in 293T cells, ER stressor; tested as the salt named
293T cells = assay: Growth assay (cytotoxicity); type: cell-based, human; conditions: 2 day incubation
Experimental: A growth assay was performed to evaluate the compounds disclosed herein for cytotoxicity. […] 133.3 uL cDMEM was added to wells 1, 2, 3, 5, 6, and 7 in rows A, C, E and G of the dilution plate. Compounds were serially diluted leftwards in threefold dilutions (66.7 uL into 133.3 uL cDMEM). 20 μL of each dilution was transferred in duplicate (duplicates in vertical paired wells) to the cells plated in the 96-well plate shown in Table 5, to the total concentrations shown below. 200 uL cDMEM was added to media wells (wells G5-H8). The plate was then placed in a humidified chamber for a 2 day incubation, and then photographed (media was more yellow in wells with potent cell growth).

[3] = Bioavailability assay (mouse pharmacokinetic study); type: in vivo; conditions: IV 1 mg/kg, PO 30 mg/kg (Compound A PO 10 mg/kg)
IRE1a/XBP1 pathway = assay: Assay for inhibition of endogenous XBP1 splicing in 293T cells with tunicamycin; type: cell-based, human; conditions: XBP1 splicing by qPCR
Experimental: Gene expression was evaluated by quantitative PCR for XBP1s and total XBP1 transcripts using the 2^(−ΔCT) method for calculating normalized gene expression. Gene expression levels were normalized to ACTB transcripts. XBP1 splicing was calculated as actin-normalized XBP1s expression divided by actin-normalized total XBP1 expression.

[4] = Metabolic assays of N,N-dimethyl compounds; type: in vitro ADME; conditions: data not shown
IRE1a [5] = biological target: T1, IRE1a; assay: IRE1a phosphorylation inhibition assay (immunoblot, tunicamycin-treated 293T cells); type: cell-based; set-up: endogenous in cells; host or cells: 293T; conditions: human 293T cells
Experimental: Inhibition of ER stress-induced IRE1a phosphorylation and XBP1s protein accumulation in human 293T cells was assessed. Immunoblot analysis was performed in human 293T cells lysates obtained from cells after exposure to the chemical ER stress-inducing agent tunicamycin, and optional treatment with Compound C. Lysates were probed with antibodies recognizing IRE1a, phosphorylated IRE1a, XBP1, or TATA-binding protein (TBP). TBP was blotted as a protein loading control. […] 20 nM was sufficient to reduce XBP1s protein levels below the limit of detection in this assay.

[6] = system: IRE1a-mediated XBP1 splicing; assay: Assay for target engagement in pancreas and salivary gland (RT-qPCR of XBP1 splicing); type: in vivo; conditions: mice, 30 mg/kg oral gavage, 6 hours, compared to control and Compound B
Experimental: Mice (n=3 per group) were orally gavaged with 30 mg/kg vehicle control or IRE1 inhibitors dissolved in H2O. After 6 hours, mice were euthanized and pancreas and salivary gland tissues were isolated, snap frozen on dry ice, and used for subsequent RT-qPCR analysis of beta-actin, XBP1s and total XBP1. Gene expression was evaluated by quantitative PCR for XBP1s and total XBP1 transcripts using the 2^(−ΔCT) method for calculating normalized gene expression. Gene expression levels were normalized to Actb transcripts. XBP1 splicing is calculated as XBP1s expression divided by total XBP1 expression.

T1 sequence (O75460 19-977): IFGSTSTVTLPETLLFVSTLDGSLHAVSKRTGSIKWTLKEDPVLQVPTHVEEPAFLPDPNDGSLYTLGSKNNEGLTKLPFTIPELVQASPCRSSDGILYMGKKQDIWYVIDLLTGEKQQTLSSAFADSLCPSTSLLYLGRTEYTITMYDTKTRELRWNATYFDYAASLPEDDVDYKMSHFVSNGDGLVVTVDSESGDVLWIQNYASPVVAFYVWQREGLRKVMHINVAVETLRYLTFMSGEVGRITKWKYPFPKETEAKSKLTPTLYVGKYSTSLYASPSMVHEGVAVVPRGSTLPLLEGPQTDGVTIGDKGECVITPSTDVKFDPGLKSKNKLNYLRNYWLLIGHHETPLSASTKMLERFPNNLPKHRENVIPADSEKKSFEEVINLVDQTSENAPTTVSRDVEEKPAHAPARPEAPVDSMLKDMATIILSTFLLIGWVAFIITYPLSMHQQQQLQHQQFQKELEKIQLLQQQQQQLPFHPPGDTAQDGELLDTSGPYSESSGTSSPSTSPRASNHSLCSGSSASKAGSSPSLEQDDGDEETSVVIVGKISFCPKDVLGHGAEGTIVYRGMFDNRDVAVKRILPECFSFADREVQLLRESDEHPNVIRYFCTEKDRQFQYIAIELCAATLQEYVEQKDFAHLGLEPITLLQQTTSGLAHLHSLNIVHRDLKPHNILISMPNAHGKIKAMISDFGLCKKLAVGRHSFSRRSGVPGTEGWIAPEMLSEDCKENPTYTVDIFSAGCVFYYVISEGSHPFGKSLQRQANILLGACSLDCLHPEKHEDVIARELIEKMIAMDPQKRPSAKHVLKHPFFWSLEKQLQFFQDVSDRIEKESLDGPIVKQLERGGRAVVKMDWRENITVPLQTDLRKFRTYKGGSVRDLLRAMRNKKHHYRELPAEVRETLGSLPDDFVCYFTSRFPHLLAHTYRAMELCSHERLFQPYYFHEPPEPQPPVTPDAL

Compound	pIC50 (IRE1a [1])	pEC50 (IRE1a [2])	also measured
CCc1cc(-c2cnc(NS(=O)(=O)c3ccccc3Cl)cn2)cc2cnc(N[C@H]3CC[C@H](N)CC3)nc12 [Compound 25, N-(5-(2-(((1r,4r)-4-aminocyclohexyl)amino)-8-ethylquinazolin-6-yl)pyrazin-2-yl)-2-chlorobenzene-sulfonamide]	> 8.30	> 8.30	% Growth at 0.185 uM (293T cells; 0.185 uM): D (D: > 75% to ≤ 100%); % Growth at 0.5556 uM (293T cells): D (D: > 75% to ≤ 100%); % Growth at 1.667 uM (293T cells): D (D: > 75% to ≤ 100%); % Growth at 5 uM (293T cells): D (D: > 75% to ≤ 100%)
CCc1cc(-c2ccc(NS(=O)(=O)c3ccccc3Cl)nc2OC)cc2cnc(N[C@H]3CC[C@H](N)CC3)nc12 [Compound 37, N-(5-(2-(((1r,4r)-4-aminocyclohexyl)amino)-8-ethylquinazolin-6-yl)-6-methoxypyridin-2-yl)-2-chlorobenzene-sulfonamide]		> 8.30	% Growth at 0.5556 uM (293T cells): D (D: > 75% to ≤ 100%); % Growth at 1.667 uM (293T cells): C (C: > 50% to ≤ 75%); % Growth at 5 uM (293T cells): B (B: > 25% to ≤ 50%)
CCc1cc(-c2ccc(NS(=O)(=O)c3ccccc3Cl)c(F)c2)cc2cnc(N[C@H]3CC[C@H](NC(=O)[C@@H](N)C(C)C)CC3)nc12 [Compound 58, (S)-2-amino-N-((1r,4S)-4-((6-(4-((2-chlorophenyl)sulfonamido)-3-fluorophenyl)-8-ethylquinazolin-2-yl)amino)cyclohexyl)-3-methylbutanamide]	7.30 to 8.30	> 8.30	
CCc1cc(-c2ccc(NS(=O)(=O)c3ccccc3Cl)c(F)c2)cc2cnc(N[C@@H]3CC[C@H](N)[C@H](C)C3)nc12 [Compound 70, N-(4-(2-(((1R,3R,4S)-4-amino-3-methylcyclohexyl)amino)-8-ethylquinazolin-6-yl)-2-fluorophenyl)-2-chlorobenzene-sulfonamide]	> 8.30	> 8.30	
CCc1cc(-c2ccc(NS(=O)(=O)c3ccccc3Cl)c(F)c2)cc2cnc(N[C@H]3CCCNC3)nc12 [Compound 73, (S)-2-chloro-N-(4-(8-ethyl-2-(piperidin-3-ylamino)quinazolin-6-yl)-2-fluorophenyl) benzene-sulfonamide]	> 8.30	> 8.30	
N[C@H]1CC[C@@H](Nc2ncc3cc(-c4ccc(NS(=O)(=O)c5ccccc5Cl)c(F)c4)ccc3n2)C1 [Compound 80]	> 8.30	5.00 to 7.00	
CCc1cc(-c2ccc(NS(=O)(=O)c3ccccc3Cl)nc2C)cc2cnc(N[C@H]3CC[C@H](N(C)C)CC3)nc12 [Compound 91, 2-chloro-N-(5-(2-(((1r,4r)-4-(dimethylamino)cyclohexyl)amino)-8-ethylquinazolin-6-yl)-6-methylpyridin-2-yl)benzenesulfonamide]	> 8.30	> 8.30	
CCc1c(F)c(-c2ccc(NS(=O)(=O)c3ccccc3Cl)nc2C)cc2cnc(N[C@H]3CC[C@H](N(C)C)CC3)nc12 [Compound 161, 2-chloro-N-(5-(2-(((1r,4r)-4-(dimethylamino)cyclohexyl)amino)-8-ethyl-7-fluoroquinazolin-6-yl)-6-methylpyridin-2-yl)benzenesulfonamide]		> 8.30	
CCc1c(F)c(-c2cc(F)c(NS(=O)(=O)c3ccccc3Cl)nc2C)cc2cnc(N[C@H]3CC[C@H](N(C)C)CC3)nc12 [Compound 162, 2-chloro-N-(5-(2-(((1r,4r)-4-(dimethylamino)cyclohexyl)amino)-8-ethyl-7-fluoroquinazolin-6-yl)-3-fluoro-6-methylpyridin-2-yl)benzenesulfonamide]		> 8.30	
CCc1c(F)c(-c2cc(F)c(NS(=O)(=O)c3ccccc3Cl)nc2OC)cc2cnc(N[C@H]3CC[C@H](N(C)C)CC3)nc12 [Compound 163, 2-chloro-N-(5-(2-(((1r,4r)-4-(dimethylamino)cyclohexyl)amino)-8-ethyl-7-fluoroquinazolin-6-yl)-3-fluoro-6-methoxypyridin-2-yl)benzenesulfonamide]		> 8.30	
CCc1cc(-c2ccc(NS(=O)(=O)c3ccccc3Cl)nc2C)cc2cnc(N[C@H]3CC[C@H](N)CC3)nc12 [Compound A, N-(5-(2-(((1r,4r)-4-aminocyclohexyl)amino)-8-ethylquinazolin-6-yl)-6-methylpyridin-2-yl)-2-chlorobenzenesulfonamide]			oral bioavailability [3]: 4%
CCc1cc(-c2ccc(NS(=O)(=O)c3ccccc3Cl)nc2C)cc2cnc(NC3CCC(N(C)C)CC3)nc12 (centres unmarked) [Compound C]			shift in potency between Compound A and Compound C (IRE1a/XBP1 pathway): approximately 3.6 ×; metabolic fate [4]: removal of the methyl groups; concentration sufficient to reduce XBP1s protein levels below the limit of detection (IRE1a [5]): 20 nM; ER stress-induced IRE1a phosphorylation (IRE1a [5]; pre-incubation with compound): strongly repressed; accumulation of XBP1s protein (IRE1a [5]; pre-incubation with compound): completely abrogated; suppression of IRE1a-mediated XBP1 splicing in pancreas and salivary gland [6]: potently suppressed
CCc1cc(-c2ccc(NS(=O)(=O)c3ccccc3Cl)nc2OC)cc2cnc(NC3CCC(N(C)C)CC3)nc12 (centres unmarked) [Compound D]			metabolic fate [4]: removal of the methyl groups; suppression of IRE1a-mediated XBP1 splicing in pancreas and salivary gland [6]: potently suppressed
